Experimental data reported in US9012431B2, “Boron-containing small molecules as anti-inflammatory agents” (Anacor Pharmaceuticals, Inc., priority 2008, dated 2015).
Like-named read-outs stand apart in the source and are kept apart here.

Experiments:
[1] = test system: IL-10 production by human PBMCs; test: IL-10 production by LPS- or PHA-stimulated PBMCs; type: cell-based
[2] = test system: IL-5; test: Cytokine assay, IL-5 release from PBMC; type: cell-based; details: human PBMC, 20 ug/mL PHA, supernatant at 48 hours
In short: (§1)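 First, frozen human PBMC are thawed, pelleted and taken up in RPMI 1640 containing 10% FBS. Next, compound serially diluted from a 10 mM DMSO stock is added at 10, 1, 0.1 or 0.01 μM (n=3). Finally, released cytokine is quantified.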

[3] = test system: IL-2; test: Cytokine assay, IL-2 release from PBMC; type: cell-based; details: human PBMC, 20 ug/mL PHA, supernatant at 24 hours
In short: as §1

[4] = test system: Escherichia coli strain WP2 uvrA; test: Bacterial mutagenicity assay with/without Aroclor-induced S9 (E. coli); type: cell-based; details: up to 5000 μg per plate; presence or absence of Aroclor-induced S9 liver fraction
[5] = test system: IL-10; test: Cytokine assay, IL-10 release from PBMC; type: cell-based; details: human PBMC, 20 ug/mL PHA, supernatant at 48 hours
In short: as §1

[6] = test system: IFN-γ secretion from PBMCs; test: IFN-γ secretion from PBMCs stimulated with PHA; type: cell-based, human; details: PBMC
From the text: (§2) Compounds were screened by a biochemical assay against PDE4 enzyme and cell-based cytokine release assays using PBMCs stimulated by LPS or phytohemagglutinin (PHA).

[7] = test system: T1, PDE4Cat; test: PDE4Cat inhibition; type: biochemical; details: standard: Rolipram
T1 construct: Recombinant human PDE enzymes were expressed in a baculoviral system.

[8] = test system: IL-23 production from human THP-1 macrophages; test: IL-23 production by THP-1 cells stimulated with IFN-g and LPS; type: cell-based
[9] = molecular target: T2, PDE7A1 (Homo sapiens, UniProt Q13946); test: PDE7 inhibition; type: biochemical
T2 construct: made in house; host or cells: baculoviral expression system

[10] = molecular target: hERG-channel (Homo sapiens, UniProt Q12809); test: hERG-channel block; type: biochemical; details: C17 at 1 μM
[11] = test system: female CBA/J mice; test: Local lymph node assay (hypersensitivity response); type: in vivo
[12] = test system: T3, phosphodiesterase 4 (PDE4) enzyme derived from human U937 cells; test: PDE4 enzyme activity (enzyme derived from human U937 cells); type: biochemical
T3 construct: PDE4 IC50; other: biochemical assay, PDE4 enzyme derived from human U937 cells; other: PDE4 in human U937 cells
From the text: (§3) The structure-activity relationships of novel boron-containing anti-inflammatory agents was investigated.
as §2

[13] = test system: phosphodiesterase 4 (PDE4) enzyme derived from human U937 cells; test: as above; type: biochemical; details: versus substrate cAMP
From the text: as §3, §2

[14] = test system: IL-5 production by human PBMCs; test: IL-5 production by LPS- or PHA-stimulated PBMCs; type: cell-based
[15] = test system: CD-1 (Crl.) derived male mice; test: Phorbol Ester Induced Mouse Ear Edema Model; type: in vivo; details: topical, 6 h, 1 mg/ear × 2 topical, vehicle not given, ear swelling 6 hours after PMA
In short: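 Test compounds in acetone:ethanol 1:1 were applied topically to both ears 30 min before and 15 min after PMA challenge; dexamethasone positive control followed the same schedule. Ear thickness was measured by micrometer 6 h after PMA, and percent inhibition was calculated from ear-thickness increase versus vehicle controls.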

[16] = molecular target: PDE5 (Homo sapiens, UniProt O76074); test: PDE5 inhibition; type: biochemical
[17] = test system: all four PDE4 isoforms; test: PDE4 isoform inhibition; type: biochemical
[18] = test system: T4, PDE4 partially purified from human U-937 myeloid leukemia cells; test: PDE4 Assay (enzyme from U-937 cells, [3H]cAMP); type: biochemical; details: PDE4 from U-937 cells, Tris buffer pH 7.5, 20 minutes at 25° C.
T4 construct: PDE4 partially purified from human U-937 myeloid leukemia cells was used

[19] = test system: MCP-1 and PGE2; test: Release of chemokine MCP-1 and PGE2; type: cell-based
From the text: This activity is explained in part by the inhibition of phosphodiesterase-4 (PDE-4).

[20] = molecular target: T5, PDE1A3 (Homo sapiens, UniProt P54750); test: PDE1 inhibition; type: biochemical
T5 construct: made in house; host or cells: baculoviral expression system

[21] = test system: TNF-α; test: Cytokine assay, TNF-α release from PBMC; type: cell-based; details: Homo sapiens, PBMC, 24 h, 1 μg/mL LPS, supernatant at 24 hours
In short: as §1

[22] = test system: IL-2 secretion from PBMCs; test: IL-2 secretion from PBMCs stimulated with PHA; type: cell-based, human; details: PBMC
From the text: as §2

[23] = test system: Salmonella typhimurium strains TA98, TA100, TA1535, and TA1537; test: Bacterial mutagenicity assay with/without Aroclor-induced S9 (Salmonella); type: cell-based; details: up to 5000 μg per plate; presence or absence of Aroclor-induced S9 liver fraction

T2 sequence (Q13946 whole entry): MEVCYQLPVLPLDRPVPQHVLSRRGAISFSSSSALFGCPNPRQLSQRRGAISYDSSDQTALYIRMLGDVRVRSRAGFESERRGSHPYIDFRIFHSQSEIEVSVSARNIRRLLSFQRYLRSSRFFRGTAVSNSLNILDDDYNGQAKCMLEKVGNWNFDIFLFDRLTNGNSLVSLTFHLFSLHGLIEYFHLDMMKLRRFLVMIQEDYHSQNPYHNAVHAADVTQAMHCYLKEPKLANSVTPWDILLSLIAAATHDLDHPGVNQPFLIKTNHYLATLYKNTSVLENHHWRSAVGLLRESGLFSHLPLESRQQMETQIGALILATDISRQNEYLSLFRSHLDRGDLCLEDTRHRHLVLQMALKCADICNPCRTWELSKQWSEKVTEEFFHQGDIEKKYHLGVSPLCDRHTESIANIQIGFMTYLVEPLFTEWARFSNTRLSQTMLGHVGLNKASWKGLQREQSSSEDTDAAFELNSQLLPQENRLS
T5 sequence (P54750 whole entry): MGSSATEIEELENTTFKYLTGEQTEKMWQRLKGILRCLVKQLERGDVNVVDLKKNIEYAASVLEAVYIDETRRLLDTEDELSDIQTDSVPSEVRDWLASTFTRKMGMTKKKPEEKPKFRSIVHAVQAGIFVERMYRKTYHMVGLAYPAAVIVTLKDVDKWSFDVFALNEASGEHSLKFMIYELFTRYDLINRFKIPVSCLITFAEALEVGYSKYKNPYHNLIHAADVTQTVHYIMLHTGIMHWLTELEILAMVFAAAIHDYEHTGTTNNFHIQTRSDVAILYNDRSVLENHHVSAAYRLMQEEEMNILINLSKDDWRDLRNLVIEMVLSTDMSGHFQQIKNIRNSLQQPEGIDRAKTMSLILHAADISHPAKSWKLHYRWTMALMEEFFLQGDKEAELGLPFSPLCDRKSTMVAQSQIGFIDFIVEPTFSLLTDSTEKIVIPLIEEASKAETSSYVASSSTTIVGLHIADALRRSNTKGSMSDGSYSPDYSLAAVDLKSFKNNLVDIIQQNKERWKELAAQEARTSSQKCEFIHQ
hERG-channel, sequence (Q12809 whole entry): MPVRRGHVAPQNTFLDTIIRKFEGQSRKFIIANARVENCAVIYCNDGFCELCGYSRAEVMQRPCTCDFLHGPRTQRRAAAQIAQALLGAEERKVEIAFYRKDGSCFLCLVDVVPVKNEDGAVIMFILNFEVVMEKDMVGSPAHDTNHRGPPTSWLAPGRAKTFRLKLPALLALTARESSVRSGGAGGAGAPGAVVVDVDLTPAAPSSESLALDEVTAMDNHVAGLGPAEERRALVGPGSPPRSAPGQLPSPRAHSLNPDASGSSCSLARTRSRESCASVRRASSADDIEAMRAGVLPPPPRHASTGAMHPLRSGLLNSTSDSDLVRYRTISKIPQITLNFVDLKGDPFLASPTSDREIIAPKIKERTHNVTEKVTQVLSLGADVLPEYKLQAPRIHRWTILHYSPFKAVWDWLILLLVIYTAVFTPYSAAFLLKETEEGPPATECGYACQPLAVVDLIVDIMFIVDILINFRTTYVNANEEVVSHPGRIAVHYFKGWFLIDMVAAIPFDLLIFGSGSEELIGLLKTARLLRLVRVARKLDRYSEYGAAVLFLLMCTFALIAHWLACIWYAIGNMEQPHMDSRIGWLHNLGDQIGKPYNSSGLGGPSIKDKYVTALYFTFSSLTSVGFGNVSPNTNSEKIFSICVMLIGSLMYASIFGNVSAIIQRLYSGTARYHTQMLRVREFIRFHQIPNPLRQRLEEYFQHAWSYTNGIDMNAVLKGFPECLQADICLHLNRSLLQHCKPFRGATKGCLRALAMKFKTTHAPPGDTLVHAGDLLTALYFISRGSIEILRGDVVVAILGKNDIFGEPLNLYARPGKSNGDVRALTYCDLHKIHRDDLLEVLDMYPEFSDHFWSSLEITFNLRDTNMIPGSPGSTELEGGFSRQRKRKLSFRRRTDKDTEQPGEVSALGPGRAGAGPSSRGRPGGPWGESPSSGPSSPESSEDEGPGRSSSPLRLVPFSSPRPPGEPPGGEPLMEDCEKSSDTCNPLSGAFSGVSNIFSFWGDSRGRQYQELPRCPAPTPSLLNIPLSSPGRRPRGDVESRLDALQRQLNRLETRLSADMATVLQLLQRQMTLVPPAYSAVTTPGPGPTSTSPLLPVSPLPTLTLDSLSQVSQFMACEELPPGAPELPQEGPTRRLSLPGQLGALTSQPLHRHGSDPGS

SMILES: N#Cc1ccc(Oc2ccc3c(c2)COB3O)cc1 [C17, 5-(4-cyanophenoxy)-1-hydroxy-1,3-dihydro-2,1-benzoxaborole]
- IC50 ([1]; PBMC, LPS- and PHA-induced cytokine production by human PBMCs, read-out: IC50 IL-10 (Th2 cytokines)): < 1 µM
- IL-10 inhibition, range in words ([1]; PBMCs): low micromolar range
- IC50 [2]: 1 to 4 µM
- IC50 [3]: < 1 µM
- mutagenic activity [4]: no mutagenic activity
- IC50 [5]: 4 to 10 µM
- IC50 ([6]; Homo sapiens, PBMCs stimulated with PHA, read-out: IFN-γ secretion IC50): 0.27 µM
- IC50 ([6]; LPS- and PHA-induced cytokine production by human PBMCs, read-out: IC50 IFNg (Th1 cytokines)): < 1 µM
- IC50 [7]: < 1 µM
- IC50 ([8]; human THP-1 macrophages, read-out: IL-23 production IC50): 2.25 µM
- IC50 ([8]; human THP-1 monocytic cells stimulated with IFN-g and LPS, read-out: IC50 IL-23*): 1 to 10 µM
- IC50 ([9]; read-out: PDE7 IC50): 0.73 µM
- IC50 ([9]; standard: BRL-50481, read-out: IC50 PDE7A1): < 1 µM
- hERG-channel blocker classification [10]: low potency hERG-channel blocker
- skin sensitizing activity ([11]; mouse, in vivo): not considered to have skin sensitizing activity
- stimulation index ([11]; topical 1%, 5%, and 10% solution in acetone/ethanol (50:50, v/v)): < 3
- IC50 ([12]; PDE4 in human U937 cells, read-out: PDE4 enzyme activity IC50): 0.49 µM
- IC50 ([12]; biochemical assay, PDE4 enzyme derived from human U937 cells, read-out: PDE4 IC50): 0.49 µM
- mode of inhibition (enzyme kinetic analysis) [13]: competitive inhibitor
- IC50 ([14]; PBMC, LPS- and PHA-induced cytokine production by human PBMCs, read-out: IC50 IL-5 (Th2 cytokines)): 1 to 10 µM
- IL-5 inhibition, range in words ([14]; PBMCs): low micromolar range
- inhibition in vivo at 1 mg [15]: 60 to 90%
- inhibition of PDE5 [16]: does not significantly inhibit
- inhibition of PDE4 isoforms [17]: inhibiting all four PDE4 isoforms equally
- IC50 [18]: < 1 µM
- release of the chemokine MCP-1 and PGE2 [19]: inhibits the release
- inhibition of PDE1 [20]: does not significantly inhibit
- IC50 ([20]; standard: 8-methoxymethyl-IBMX): 1 to 10 µM
- IC50 [21]: < 1 µM
- IC50 ([22]; Homo sapiens, PBMCs stimulated with PHA, read-out: IL-2 secretion IC50): 0.46 µM
- IC50 ([22]; LPS- and PHA-induced cytokine production by human PBMCs, read-out: IC50 IL-2 (Th1 cytokines)): < 1 µM
- mutagenic activity [23]: no mutagenic activity
